In experiment [1] the test system is PKC and ERK activity. In words: FRET assays of compartmentalized PKC and ERK in DRG neurons. It is filed as cell-based, rat. The protocol: To determine whether trypsin causes PAR2-dependent activation of PKC and ERK, which respectively mediate initial and persistent trypsin-induced hyperexcitability of nociceptors, genetically-encoded Förster Resonance Energy Transfer (FRET) biosensors were expressed in neurons. […] Trypsin (10 or 100 nM) activated PKC at the plasma membrane but not in the cytosol (FIG. 4E-G), and activated ERK in the cytosol and nucleus (FIG. 4H-J). The PAR2 antagonist I-343 (10 μM) inhibited trypsin-induced activation of PKC and ERK, whereas the PAR1 antagonist SCH530348 (100 nM) had no effect (FIG. 4F, I). At the end of experiments, neurons were challenged with the positive controls phorbol 12,13-dibutyrate (PDBu) for EKAR biosensors or PDBu plus phosphatase inhibitor mixture-2 for CKAR biosensors, to ensure that the response of the biosensor was not saturated.
DRG were collected from C57BL/6 mice and Sprague-Dawley rats (all levels). DRG were incubated with collagenase IV (2 mg/ml) and dispase II (1 mg/ml) for 30 min (mice) and 45 min (rats) at 37° C. DRG were dispersed by trituration with a fire-polished Pasteur pipette. Dissociated neurons were transfected with mPAR2-GFP (1 μg), the FRET biosensors CytoEKAR, NucEKAR, pmCKAR or CytoCKAR (all […]), or with the BRET biosensors PAR2-RLuc8 (125 ng) and βARR2-FYP (475 ng) using the Lonza 4D-Nucleofector X unit according to the manufacturer's instructions. Neurons were plated on laminin- (0.004 mg/ml) and poly-L-Lysine- (0.1 mg/ml) coated glass coverslips for confocal microscopy, on ViewPlate-96 plates (PerkinElmer) for FRET assays, or on CulturPlates (PerkinElmer) for BRET assays. Neurons were maintained in Dulbecco's modified Eagle medium (DMEM) containing 10% fetal bovine serum (FBS), antibiotic-antimitotic, and N1 supplement for 48 h before study.
Rat DRG neurons expressing FRET biosensors were serum-restricted (0.5% FBS overnight), and equilibrated in HBSS-HEPES (10 mM HEPES, pH 7.4, 30 min, 37° C.). FRET was analyzed using an Operetta CLS High-Content Imaging System (PerkinElmer) or an INCell Analyzer 2000 G E Healthcare Life Sciences). For CFP/YFP emission ratio analysis, cells were sequentially excited using a CFP filter (410-430 nm) with emission measured using YFP (520-560 nm) and CFP (460-500 nm) filters. Cells were imaged at 1 or 2 min intervals. Baseline was measured, neurons were challenged with trypsin (10 or 100 nM) or vehicle, and responses recorded for a further 30 min. Neurons were then challenged with phorbol 12,13-dibutyrate (PDBu, 200 nM, 10 min) for EKAR biosensors or PDBu (200 nM) and phosphatase inhibitor cocktail-2 (SigmaAldrich, 10 min) for CKAR biosensors. Data were analyzed using Harmony 4.1 or Image J 1.51 software. Images taken were aligned, cells were selected based on diameter, and fluorescence intensity was calculated for both FRET and CFP channels. Background intensity was subtracted and the FRET ratio was determined as the change in the FRET/donor (EKAR) or donor/FRET (CKAR) emission ratio relative to the baseline for each cell (F/Fo). Cells with >5% changes in F/F0 after PDBu stimulation were selected for analysis. Neurons were incubated with I-343 (10 μM), SCH530348 (100 nM) or vehicle (30 min, 37° C. preincubation and inclusion throughout).

Experiment [2] addresses T1, PAR2-RLuc8/βARR2-YFP (Homo sapiens, UniProt P55085).
T1 construct: expressed in transfected cells; host or cells: mouse (C57BL/6) DRG neurons, nucleofection
T1 sequence (P55085 26-397): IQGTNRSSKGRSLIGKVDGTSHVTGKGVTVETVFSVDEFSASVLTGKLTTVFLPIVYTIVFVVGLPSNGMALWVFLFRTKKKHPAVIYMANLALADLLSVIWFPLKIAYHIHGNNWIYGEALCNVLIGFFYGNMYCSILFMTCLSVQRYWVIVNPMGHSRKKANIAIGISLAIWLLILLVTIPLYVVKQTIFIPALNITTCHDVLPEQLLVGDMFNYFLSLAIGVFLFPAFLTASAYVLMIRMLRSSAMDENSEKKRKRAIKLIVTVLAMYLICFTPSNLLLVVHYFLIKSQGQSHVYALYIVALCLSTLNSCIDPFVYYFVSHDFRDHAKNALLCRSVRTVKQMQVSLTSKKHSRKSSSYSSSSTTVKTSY
Description: BRET assay of βARR2 recruitment in DRG neurons. The format is cell-based. Particulars: mouse DRG neurons. The protocol: To assess endocytosis of PAR2 in nociceptors, mouse (m) PAR2-GFP was transfected in to mouse DRG neurons. In vehicle-treated neurons, mPAR2-GFP was detected at the plasma membrane and in intracellular compartments that may correspond to stores of PAR2 in the Golgi apparatus (FIG. 4A) (Jensen D. D., et al. J Biol Chem. 2016, 291(21): 11285-11299). Trypsin, but not NE or CS (100 nM, 30 min), induced mPAR2-GFP endocytosis (FIG. 4A, B). Dy4, but not Dy4 inact, inhibited trypsin-induced endocytosis of mPAR2-GFP (FIG. 4C). To determine whether PAR2 recruits βARRs, which mediate endocytosis, Bioluminescence Resonance Energy Transfer (BRET) sensors were expressed for PAR2-RLuc8 (donor) and βARR2-YFP (acceptor) in mouse DRG neurons. Trypsin, but not NE or CS, increased PAR2-RLuc8/βARR2-YFP BRET (FIG. 4D).
DRG were collected from C57BL/6 mice and Sprague-Dawley rats (all levels). […]
Mouse DRG neurons were equilibrated in HBSS-HEPES (30 min, 37° C.), and incubated with the Renilla luciferase substrate coelenterazine h (NanoLight Technologies) (5 μM, 5 min). BRET ratios were measured at 475±30 nm and 535±30 nm using a CLARIOstar Monochronometer Microplate Reader (BMG LabTech) before and after challenge with trypsin (10 nM), NE (100 nM) or CS (100 nM). Data are presented as a BRET ratio, calculated as the ratio of YFP to RLuc8 signals, and normalized to the baseline average. […]

[3] abbreviates: trypsin 10 or 100 nM, rat DRG neurons.

Results on three compounds are retold here after patent US20200383985A1, “Inhibitors of Protease Activated Receptor-2” (Endosome Therapeutics, Inc., priority 2017, published 2020).

For the compound `Cc1nc(C(=O)N2CCN(C(=O)c3cn4nc(-c5ccc(F)cc5)cc(C(C)(C)C)c4n3)C(C)(C)C2)n[nH]1` [Compound I-343, (8-(tert-butyl)-6-(4-fluorophenyl)imidazo[1,2-b]pyridazin-2-yl)(2,2-dimethyl-4-(5-methyl-1H-1,2,4-triazole-3-carbonyl)piperazin-1-yl)methanone], the “trypsin-induced activation of PKC and ERK” value in experiment [1] (I-343 10 μM, SCH530348 100 nM) is listed as “inhibited”.
“NE: protease (elastase) activating PAR2 by biased mechanisms”: the “PAR2-RLuc8/βARR2-YFP BRET” value in experiment [2] was “not”.
For the compound trypsin, in experiment [1] (setting [3]), the “ERK activity in the cytosol and nucleus” value is listed as “activated”; the “PKC activity at the plasma membrane” value is on record as “activated”; the “PKC activity in the cytosol” value is recorded as “not”. Besides, in experiment [2], the “PAR2-RLuc8/βARR2-YFP BRET” value is reported as “increased”.
